Source: PubChem BioAssay AID2060511 (Molecular Pharmacology Branch, DTP, NCI, 2025)

Tested on: 422866-222-R5-J1-PDC spheroids with HUVEC/MSC, viability
Assay: Anticancer human tumor 422866-222-R5-J1-PDC patient-derived pancreatic adenocarcinoma cell line growth inhibition [GQUAD]
Conditions: for IC50: curve of first compound; for viability, T/C: stronger effect = lower value
From the text: DNA G-quadruplex Stabilizer Agents in Combinations in Complex Spheroids
A high-throughput screen of multi-cell type tumor spheroids was designed to identify active combinations of DNA G-quadruplex stabilizer agents and targeted small molecules. Complex spheroids include a stromal component modeled by human endothelial cells (HUVEC) and fibroblasts modeled by human mesenchymal stem cells (MSCs). The concentration ranges selected for each drug and investigational agent were based upon clinically achievable concentrations if the clinical Cmax of the agent was known.
Compounds. The drugs and investigational agents: pidnarulex (CX-5461; NSC782164), APTO-253 (NSC789042), BRACO-19 (NSC847499), peposertib (NSC802822), ceralasertib (NSC780249), elimusertib (NSC800525), camonsertib (NSC841442), AZD-1390 (NSC803789), olaparib (NSC753686), talazoparib (NSC767125), ART-558 (NSC835418), sotorasib (NSC818433), MRTX-1133 (NSC836407), SN-38 (NSC673596), topotecan (NSC609699), etoposide (NSC141540), doxorubicin (NSC123127), gemcitabine (NSC613327), 5-fluorouracil (NSC19893), paclitaxel (NSC125973), vemurafenib (NSC761431), panobinostat (NSC761190), R-306465 (JNJ-16241199; NSC773264), adavosertib (NSC754352), TP-3654 (NSC805149), carboplatin (NSC241240), KSQ-4279 (NSC840948), and staurosporine (NSC755774) were obtained from the National Cancer Institute (NCI) Developmental Therapeutics Program Chemical Repository (34). The FDA-approved anticancer drug set is available from the NCI Developmental Therapeutics Program. […] The stock solutions were prepared in dimethyl sulfoxide (DMSO, Sigma-Aldrich, St. Louis, MO, cat. D2650) at 800-fold the tested concentration and stored at -70 degrees C prior to their use. All drugs and investigational agents were tested over a range starting from a high concentration at or near the clinical Cmax and decreasing in half-log increments. If the clinical Cmax for an agent had not been determined, the highest concentration tested was 10 microM.
2.3 Cell Culture. All cells were maintained in an incubator at 37 degrees C and 5% CO2 with 95% humidity. The PDC lines were cultured according to standard operating procedures established by the NCI PDMR. All PDCs were thawed and cultured in Matrigel-coated flasks prepared with a working solution of 1X Ham's F-12 nutrient mix, without supplementation (Invitrogen, cat. 11765054), 100 U/mL penicillin-streptomycin (Invitrogen, cat. 15140122), and 2.5% Matrigel (Corning Inc., cat. 354248) for the first three passages. The 857933-349-R-J2-PDC line was cultured in 6C/Colon 1B media, which includes advanced DMEM/F-12 (Thermo Fisher Scientific, cat. 12634028), 10 mM HEPES (Thermo Fisher Scientific, cat. 15630080), 1X GlutaMAX supplement (Thermo Fisher Scientific, cat. 35050061), 0.1 mg/mL primocin (InvivoGen, cat. ant-pm-2), 10% defined fetal bovine serum, heat inactivated (HyClone Laboratories Inc., cat. SH30070.03HI), 50% L-WRN conditioned media (ATCC, cat. CRL-3276), 1.25 mM N-Acetyl-L-cysteine (Sigma-Aldrich, cat. A9165), 10 mM nicotinamide (Sigma-Aldrich, cat. N0636), 1X B-27 supplement (Thermo Fisher Scientific, cat. 17504044), 1X N-2 supplement (Thermo Fisher Scientific, cat. 17502048), 10 microM Y-27632 dihydrochloride (Tocris Bioscience, cat. 1254), and 50 ng/mL human EGF recombinant protein (Thermo Fisher Scientific, cat. PHG0311). The 485176-168-R4-J1-PDC line was cultured in Panc media, which includes all 6C/Colon 1B media components plus 100 ng/mL human FGF-10 (Thermo Fisher Scientific, cat. 100-26), 500 nM SB-431542 (Selleckchem, cat. S1067), and gastrin (Tocris, cat. 3006).
[…]

[1] = second compound 0.0316 µM, first compound 0.0316 µM
[2] = second compound 0.0316 µM, first compound 0.316 µM
[3] = second compound 0.1 µM, first compound 0.0316 µM
[4] = second compound 0.1 µM, first compound 0.316 µM
[5] = second compound 0.316 µM, first compound 0.0316 µM
[6] = second compound 0.316 µM, first compound 0.316 µM
[7] = second compound 1 µM, first compound 0.0316 µM
[8] = second compound 1 µM, first compound 0.316 µM
[9] = second compound 3.16 µM, first compound 0.0316 µM
[10] = second compound 3.16 µM, first compound 0.316 µM
[11] = second compound 10 µM, first compound 0.0316 µM
[12] = second compound 10 µM, first compound 0.316 µM
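Also: spheroids exposed to compounds for seven days before reading.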
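For viability, T/C in this document: percent viability relative to DMSO vehicle control taken as 100%.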

SMILES: Cn1ncnc1[C@H]1c2n[nH]c(=O)c3cc(F)cc(c23)N[C@@H]1c1ccc(F)cc1 + Cc1cnc(CNC(=O)c2c(=O)c3ccc(N4CCCN(C)CC4)nc3n3c2sc2ccccc23)cn1
- IC50 (second compound 0.0316 µM): > 0.316 µM
- IC50 (second compound 0.1 µM): > 0.316 µM
- IC50 (second compound 0.316 µM): > 0.316 µM
- IC50 (second compound 1 µM): > 0.316 µM
- IC50 (second compound 3.16 µM): > 0.316 µM
- IC50 (second compound 10 µM): > 0.316 µM
- viability, T/C (second compound 0.0316 µM, first compound 0.000999 µM): 94.9%
- viability, T/C (second compound 0.0316 µM, first compound 0.00316 µM): 85%
- viability, T/C (second compound 0.0316 µM, first compound 0.00999 µM): 93.8%
- viability, T/C [1]: 81.2%
- viability, T/C (second compound 0.0316 µM, first compound 0.0999 µM): 70.9%
- viability, T/C [2]: 69.4%
- viability, T/C (second compound 0.1 µM, first compound 0.000999 µM): 89.1%
- viability, T/C (second compound 0.1 µM, first compound 0.00316 µM): 91.2%
- viability, T/C (second compound 0.1 µM, first compound 0.00999 µM): 81.1%
- viability, T/C [3]: 79.3%
- viability, T/C (second compound 0.1 µM, first compound 0.0999 µM): 78.2%
- viability, T/C [4]: 71.8%
- viability, T/C (second compound 0.316 µM, first compound 0.000999 µM): 91.6%
- viability, T/C (second compound 0.316 µM, first compound 0.00316 µM): 78.6%
- viability, T/C (second compound 0.316 µM, first compound 0.00999 µM): 87.4%
- viability, T/C [5]: 84%
- viability, T/C (second compound 0.316 µM, first compound 0.0999 µM): 73.1%
- viability, T/C [6]: 83.9%
- viability, T/C (second compound 1 µM, first compound 0.000999 µM): 75.8%
- viability, T/C (second compound 1 µM, first compound 0.00316 µM): 77.4%
- viability, T/C (second compound 1 µM, first compound 0.00999 µM): 80.7%
- viability, T/C [7]: 80.5%
- viability, T/C (second compound 1 µM, first compound 0.0999 µM): 88.1%
- viability, T/C [8]: 74.9%
- viability, T/C (second compound 3.16 µM, first compound 0.000999 µM): 86.3%
- viability, T/C (second compound 3.16 µM, first compound 0.00316 µM): 71.5%
- viability, T/C (second compound 3.16 µM, first compound 0.00999 µM): 82%
- viability, T/C [9]: 70.7%
- viability, T/C (second compound 3.16 µM, first compound 0.0999 µM): 78.4%
- viability, T/C [10]: 71%
- viability, T/C (second compound 10 µM, first compound 0.000999 µM): 75.2%
- viability, T/C (second compound 10 µM, first compound 0.00316 µM): 78.2%
- viability, T/C (second compound 10 µM, first compound 0.00999 µM): 77.3%
- viability, T/C [11]: 77.9%
- viability, T/C (second compound 10 µM, first compound 0.0999 µM): 84%
- viability, T/C [12]: 66.9%

SMILES: O=C(c1cc(Cc2n[nH]c(=O)c3ccccc23)ccc1F)N1CCN(C(=O)C2CC2)CC1 + Cc1cnc(CNC(=O)c2c(=O)c3ccc(N4CCCN(C)CC4)nc3n3c2sc2ccccc23)cn1
- IC50 (second compound 0.0316 µM): > 10 µM
- IC50 (second compound 0.1 µM): > 10 µM
- IC50 (second compound 0.316 µM): > 10 µM
- IC50 (second compound 1 µM): > 10 µM
- IC50 (second compound 3.16 µM): > 10 µM
- IC50 (second compound 10 µM): > 10 µM
- viability, T/C [1]: 108%
- viability, T/C (second compound 0.0316 µM, first compound 0.1 µM): 89%
- viability, T/C [2]: 84.8%
- viability, T/C (second compound 0.0316 µM, first compound 1 µM): 83.4%
- viability, T/C (second compound 0.0316 µM, first compound 3.16 µM): 80.5%
- viability, T/C (second compound 0.0316 µM, first compound 10 µM): 65.2%
- viability, T/C [3]: 91.9%
- viability, T/C (second compound 0.1 µM, first compound 0.1 µM): 84.4%
- viability, T/C [4]: 80.5%
- viability, T/C (second compound 0.1 µM, first compound 1 µM): 83.7%
- viability, T/C (second compound 0.1 µM, first compound 3.16 µM): 80.2%
- viability, T/C (second compound 0.1 µM, first compound 10 µM): 77.6%
- viability, T/C [5]: 74%
- viability, T/C (second compound 0.316 µM, first compound 0.1 µM): 77.9%
- viability, T/C [6]: 78.8%
- viability, T/C (second compound 0.316 µM, first compound 1 µM): 84%
- viability, T/C (second compound 0.316 µM, first compound 3.16 µM): 85.2%
- viability, T/C (second compound 0.316 µM, first compound 10 µM): 77.1%
- viability, T/C [7]: 76.2%
- viability, T/C (second compound 1 µM, first compound 0.1 µM): 76.6%
- viability, T/C [8]: 84%
- viability, T/C (second compound 1 µM, first compound 1 µM): 76.5%
- viability, T/C (second compound 1 µM, first compound 3.16 µM): 80.3%
- viability, T/C (second compound 1 µM, first compound 10 µM): 70.4%
- viability, T/C [9]: 83.3%
- viability, T/C (second compound 3.16 µM, first compound 0.1 µM): 73.7%
- viability, T/C [10]: 83.2%
- viability, T/C (second compound 3.16 µM, first compound 1 µM): 91.2%
- viability, T/C (second compound 3.16 µM, first compound 3.16 µM): 83.6%
- viability, T/C (second compound 3.16 µM, first compound 10 µM): 76.5%
- viability, T/C [11]: 70%
- viability, T/C (second compound 10 µM, first compound 0.1 µM): 79.4%
- viability, T/C [12]: 77.8%
- viability, T/C (second compound 10 µM, first compound 1 µM): 72.7%
- viability, T/C (second compound 10 µM, first compound 3.16 µM): 89.5%
- viability, T/C (second compound 10 µM, first compound 10 µM): 69.2%
